Measurements: patent US4288453A, “Derivatives of arylalkanoic acids, compositions and use” (Science Union et Cie, priority 1977, dated 1981)
Structures can show the parent of a compound that is named as a salt.

Experiments:
[1] = Solubility (qualitative); format: physicochemical; settings: for solubility in sodium hydroxide / alkaline solutions: aqueous sodium hydroxide or alkaline solutions; for solubility in hydrochloric acid: (diluted) hydrochloric acid
[2] = pH of the aqueous solution; format: physicochemical; settings: dissolved in the previously-calculated amount of sodium hydroxide
[3] = test system: male mice (strain CD); experiment: Acute toxicity (LD50, Litchfield and Wilcoxon); format: in vivo; settings: intraperitoneal, 8 days survey
From the text: The acute toxicity of these compounds has been determined on batches of male mice (strain CD) weighing about 20 g. They received the compounds to be tested at increasing doses either intraperitoneally or orally.
The animals are kept under survey for eight days. The deaths when present are numbered.
The average lethal dosage is graphically calculated according to the method of Litchfield and Wilcoxon.

| Compound | solubility in sodium hydroxide / alkaline solutions [1] | further results |
| --- | --- | --- |
| CCC(OC(c1ccc(N2CCCCC2)cc1)C(F)(F)F)C(=O)O (racemic) [Example XIV hydrochloride, dl-2-[1-(4-piperidinophenyl)-2-trifluoroethoxy]butyric acid] |  | solubility in water [1]: freely soluble in water |
| CCC(OC(c1ccc(N2CCOCC2)cc1)C(F)(F)F)C(=O)O (racemic) [Example XV hydrochloride, dl-2-[1-(4-morpholinophenyl)-2-trifluoroethoxy]butyric acid] |  | solubility in water [1]: soluble in water |
| CC(OC(c1ccccc1)C(F)(F)F)C(=O)O (racemic) [IV, dl-α-(2,2,2-trifluoro-1-phenylethoxy)propionic acid] | dissolves in the stoichiometric amount of sodium hydroxide |  |
| CCC(OC(c1ccc(Oc2ccc(Cl)cc2)cc1)C(F)(F)F)C(=O)O (racemic) [XII, dl-2-[1-(4-chlorophenoxyphenyl)-2,2,2-trifluoroethoxy]butyric acid] | soluble in dilute sodium hydroxide solutions |  |
| O=C(O)C(OC(c1ccccc1)C(F)(F)F)c1ccccc1 (racemic) [XVII, dl-2-(1-phenyl-2-trifluoroethoxy)phenyl acetic acid] | soluble in the dilute solutions of sodium hydroxide |  |
| CCC(OC(c1cccs1)C(F)(F)F)C(=O)O (racemic) [XVIII, dl-2-[1-(thienyl-2)-2,2,2-trifluoroethoxy]butyric acid] | soluble in dilute solutions of sodium hydroxide |  |
| CCC(OC(c1cccc2ccccc12)C(F)(F)F)C(=O)O (racemic) [XXI, Dl-2-[(naphtyl-1)-2,2,2-trifluoroethoxy]butyric acid] | soluble in the previously-calculated amount of sodium hydroxide | pH value of the aqueous solution [2]: 7-8 |
| CCC(OC(c1ccc2ccccc2c1)C(F)(F)F)C(=O)O (racemic) [XXII, dl-2-[1-(naphtyl-2)-2,2,2-trifluoroethoxy]butyric acid] | soluble in the previously-calculated amount of sodium hydroxide |  |
| CCC(OC(c1ccc(N2CCCCCC2)cc1)C(F)(F)F)C(=O)O (racemic) [XXIV, dl-2-[[4-(1-hexamethyleneimino)phenyl]-2,2,2-trifluoroethoxy] butyric acid] | soluble in the dilute aqueous solutions of sodium hydroxide | solubility in hydrochloric acid [1]: insoluble in diluted hydrochloric acid |
| CCC(OC(c1ccc(N2CCCCCCC2)cc1)C(F)(F)F)C(=O)O (racemic) [XXV, dl-2-[[4-(heptamethyleneimino-1)phenyl-2,2,2-trifluoroethoxy)] butyric acid] | soluble in the aqueous solutions of sodium hydroxide | solubility in hydrochloric acid [1]: insoluble in hydrochloric acid |
| CCC(OC(c1ccc(Cl)cc1)C(F)(F)F)C(=O)O (single isomer, unassigned) [Example IX (acid, isomer β), α-[2,2,2-trifluoro-1-(p-chlorophenylethoxy]butyric acid (isomer β)] | soluble in the previously-calculated amount of sodium hydroxide |  |
| CCC(OC(c1ccccc1)C(F)(F)F)C(=O)O (stereo not drawn) [Example II, α-(2,2,2-trifluoro-1-phenyl-1-ethoxy)butyric acid] | soluble in the previously-calculated amount of sodium hydroxide in aqueous solution |  |
| CCC(OC(c1ccc(Cl)cc1)C(F)(F)F)C(=O)O (stereo not drawn) [Example V (1), α-[2,2,2-trifluoro-1-(4-chlorophenyl)ethoxy]butyric acid] | soluble in an aqueous solution of sodium hydroxide |  |
| CCC(OC(c1ccc(OC)cc1)C(F)(F)F)C(=O)O (stereo not drawn) [Example V (4-methoxyphenyl), α-[2,2,2-trifluoro-1-(4-methoxyphenyl)ethoxy]butyric acid] | soluble in alkaline solutions | solubility in water [1]: insoluble in water |
| CCC(OC(c1ccccc1)C(F)(F)F)C(=O)NO (stereo not drawn) [Example VI, α-(2,2,2-trifluoro-1-phenylethoxy)butyryl hydroxamic acid] | soluble in the previously-calculated amount of sodium hydroxide |  |
| CCC(OC(c1ccccc1)C(F)(F)F)C(=O)N1CCOCC1 (stereo not drawn) [Example VII, 4-[α-(2,2,2-trifluoro-1-phenylethoxy)butyryl]morpholine] |  | solubility in common organic solvents ([1]; common organic solvents): soluble in the common organic solvents; solubility in water [1]: insoluble in water |
| CCC(OC(c1ccccc1)C(F)(F)F)C(=O)N1CCCCC1 (stereo not drawn) [VIII, 1-[α-(2,2,2-trifluoro-1-phenylethoxy)butyryl]piperidine] |  | solubility in water [1]: insoluble in water |
| dl-2-[1-(p-chlorophenylethoxy)-2,2,2-trifluoroethoxy] butyric acid |  | mean lethal dose (LD50) [3]: about 400 mg/kg |
